Results reported in patent US20230192607A1, “TRANSCRIPTIONAL ENHANCED ASSOCIATE DOMAIN (TEAD) TRANSCRIPTION FACTOR INHIBITORS AND USES THEREOF” (Dana-Farber Cancer Institute, Inc., priority 2019, published 2023).
Entries after “also recorded” stand apart in the source; their conditions may differ.

Legend:
[1] = tested on: YAP activity in PC-9 YAP reporter cells; assay: Fluorescent YAP/Hippo pathway reporter assay (Incucyte live-cell imaging); format: cell-based, human; conditions: for YAP activity (reporter) induced by osimertinib/trametinib: compound added to osimertinib/trametinib
Experimental: YAP activity -induced mCherry expression was quantified using the Incucyte ZOOM live-cell analysis system. The mCherry signal was normalized to well confluency at each time point. For simultaneous detection of YAP activity and apoptosis, the cells were plated as above, and treated in the presence of CellEvent™ Caspase-3/7 Green ReadyProbes™ Reagent (Molecular Probes) as per manufacturer’s instructions. The mCherry signal as well as the green fluorescence signal was quantified every 2 hours using Incucyte ZOOM.

EGFR-mutant NSCLC cells = assay: Caspase-3/7 activity monitoring (apoptosis); format: cell-based, human; conditions: combined with osimertinib/trametinib vs osimertinib/trametinib alone
Experimental: Cells were plated into 96-well plates at 3000 cells/well in 100 µl of growth medium. The next day, drugs were added onto cells in 50 µl containing CellEvent™ Caspase-3/7 Green ReadyProbes™ Reagent (Molecular Probes) as per manufacturer’s instructions (n=5-6 wells / condition). The wells were subsequently scanned every 2 hours using the Incucyte ZOOM live cell analysis system (Essen Bioscience) typically for a total of 72 hours. The acquired fluorescent signal for activated caspase-3/7 was normalized with well confluency at each timepoint (=normalized apoptosis). Peak apoptosis was determined as the highest normalized caspase-3/7 activity value during the assay.

[2] = tested on: EGFR-mutant NSCLC cell lines; assay: Regrowth after drug washout and count of viable dormant cells; format: cell-based, human
Experimental: To determine number of dormant cells after treatment, viable cells were manually counted from the Incucyte images. A total of 10-12 wells with 3 images per well was analyzed for each condition.

CTGF expression = assay: QPCR analysis of YAP target gene CTGF expression; format: cell-based, human; conditions: 24 hour treatment; for CTGF expression in cells overexpressing TEAD1 C359S mutant: PC-9 cells transduced with TEAD1 C359S
BMF expression = assay: QPCR analysis of BMF expression; format: cell-based, human; conditions: combined with osimertinib/trametinib, 24 hour treatment
Experimental: Cells were plated at 15 × 10^4 cells / cm^2, treated the next day, and RNA samples were extracted at specified timepoints using the RNeasy Mini kit (Qiagen). The RNA concentrations were measured with Nanodrop (Thermo Fisher Scientific) and 1 µg of total RNA was used for cDNA synthesis using the QuantiTect Reverse Transcription Kit (Qiagen). The QPCR reactions were set up in 20 µl using Taqman Gene Expression Master Mix (Applied Biosystems, cat. 4369016), Taqman Gene Expression Assays (Applied Biosystems) as per manufacturer’s instructions, and 2 µl of 1:10 diluted cDNA. The following Taqman Gene Expression Assays were used in the study: CTGF (Hs01026927_ml), ANKDR1 (Hs00173317_ml), BMF (Hs00372937 _m1), SNAI1(Hs00195591_m1), SNAI2 (Hs00161904_m1), TWIST1 (Hs00361186_m1), TWIST2 (Hs02379973_s1), ZEB1 (Hs00232783_m1), ZEB2 (Hs00207691_m1), and ACTB (Hs01060665_g1). The reactions were run in StepOne Plus Real-time PCR System (Applied Biosystems) using default reaction settings. The gene expression levels were normalized to ACTB housekeeping gene expression levels in each sample. For the analysis of BMF expression in vivo, RNA was extracted from 25-30 mg snap-frozen tumor samples using RNeasy Mini kit according to the kit protocol. Reverse transcription and gene expression analyses were performed as above.

PC-9 cells = assay: Long-term cell growth assay (well confluency, Incucyte); conditions: continuous treatment with single-agent osimertinib (100 nM)
[3] = tested on: PC-9, HCC827 and HCC4006 cells
Experimental: PC-9, HCC827 and HCC4006 were plated into 6-well plates at 50 000 cells / well, and treated the next day with DMSO, 100 nM osimertinib or with the combination of 100 nM osimertinib and 30 nM trametinib in triplicate. […] After staining, cells were imaged (5 images / well), and stained cells were manually counted from the images.

[4] = tested on: EGFR-mutant NSCLC cell lines; assay: Cell viability assay (Cell Titer Glo); format: cell-based, human; conditions: several EGFR-mutant NSCLC cell lines
YAP/TEAD interaction = YAP/TEAD interaction assay (split Gaussia luciferase); format: cell-based; conditions: HEK 293T cells
Experimental: 293T cells were plated in 24-well plates and transfected with N-GLuc-YAP and C-GLuc-TEAD using TransIT-293 (Mirus Bio). The pCMV-Red Firefly Luc Vector (Life Technologies) was used as an internal control. Cells were treated with indicated concentrations of compounds or vehicle control (DMSO) in duplicates. Luciferase activity was measured by Dual-Luciferase Assay (Promega, Madison, WI) according to the manufacturer’s manual.

TEAD = assay: Competition pulldown with biotinylated MYF-01-37; format: cell-based; conditions: MDA-MB-231 cells pretreated 6 hours with 10, 25 and 50 µM
Experimental: MDA-MB-231 cells were incubated for 6 hours with 10, 25 and 50 µM MYF-01-37, followed by cell lysis. The lysates were subjected to pulldown with 50 µM biotinylated MYF-01-37 overnight, and the amount of TEAD pulled down was analyzed by western blotting.

TEAD2 protein = TEAD2 protein (Homo sapiens, UniProt Q15562); assay: Mass spectrometry analysis of covalent labeling of TEAD2 protein; format: binding; conditions: 20-fold molar excess, 6 hours at 37° C.
Chain of TEAD2 protein (Q15562 whole entry): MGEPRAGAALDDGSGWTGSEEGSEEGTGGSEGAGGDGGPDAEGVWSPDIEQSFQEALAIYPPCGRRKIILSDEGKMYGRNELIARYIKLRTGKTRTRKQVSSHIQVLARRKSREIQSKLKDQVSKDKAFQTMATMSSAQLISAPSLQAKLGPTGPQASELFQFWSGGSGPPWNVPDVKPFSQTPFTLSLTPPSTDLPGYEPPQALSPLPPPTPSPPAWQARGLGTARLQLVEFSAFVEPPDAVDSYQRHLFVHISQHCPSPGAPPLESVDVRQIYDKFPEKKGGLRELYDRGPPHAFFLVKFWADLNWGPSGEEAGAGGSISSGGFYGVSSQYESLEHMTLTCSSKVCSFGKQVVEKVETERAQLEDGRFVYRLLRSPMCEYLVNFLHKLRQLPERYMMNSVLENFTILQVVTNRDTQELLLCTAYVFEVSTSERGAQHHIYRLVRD
Experimental: TEAD2 protein was incubated with DMSO or a 20-fold molar excess of MYF-01-37 for 6 hours at 37° C. Reactions were then analyzed by LC-MS using a Shimadzu autosampler and LC (Marlborough, MA) coupled to an LTQ ion trap mass spectrometer (ThermoFisher Scientific, San Jose, CA). Protein was injected onto a self packed column (0.5 mm I.D., packed 5 cm POROS 50R2 from Applied Biosystems, Framingham, MA), desalted for 4 minutes with 100% A (A=0.2 M acetic acid in water), eluted with a gradient (0-100% B in 1 minute; A=0.2 M acetic acid in water, B=0.2 M acetic acid in acetonitrile), and introduced to the mass spectrometer by electrospray ionization (spray voltage=4.5 kV). The mass spectrometer acquired full scan MS data (m/z 300-2000). […]
To identify the site of modification, labeled protein was diluted 1:1 with 100 mM ammonium bicarbonate, reduced with 10 mM DTT at 56° C. for 30 minutes, alkylated with 22.5 mM IAA for 30 minutes at room temperature, and then digested with trypsin overnight at 37° C. Tryptic peptides were desalted by C18 (SOLA, ThermoFisher Scientific), dried by vacuum centrifugation, reconstituted in 5% MeCN, 0.1% trifluoroacetic acid, and analyzed by nanoLC-ion mobility MS/MS using a NanoAcquity UPLC system (Waters Corp., Milford, MA) interfaced to a timsTOF Pro mass spectrometer (Bruker, Billerica, MA). […]

O=c1[nH]c(-c2ccc(C(F)(F)F)cc2)nc2c1CSCC2 [XAV939]
YAP activity (reporter) induced by osimertinib/trametinib [1]: completely blocked | apoptosis (EGFR-mutant NSCLC cells): robust increase in apoptosis | regrowth after one week triple combination followed by two weeks osimertinib/trametinib vs three-week continuous triple combination ([2]; PC-9 cells): identical potency | number of dormant cells at the time of drug washout ([2]; PC-9 cells, 21-day treatment combined with osimertinib/trametinib vs osimertinib/trametinib alone): dramatic decrease in the number of dormant cells | regrowth of cells after drug washout ([2]; three-week treatment combined with osimertinib/trametinib, then washout): significant reduction in regrowth | CTGF expression in cells overexpressing TEAD1 C359S mutant (CTGF expression): still able to inhibit CTGF expression | BMF expression (BMF expression): significantly increased BMF expression

C=CC(=O)Nc1cc(Nc2nccc(-c3cn(C)c4ccccc34)n2)c(OC)cc1N(C)CCN(C)C [osimertinib]
time to re-colonization of wells (PC-9 cells): ≤ 8 weeks | cells positive for SA-β-Gal activity [3]: significantly smaller proportion | proportion of YAP^high cells ([1]; 10-day treatment): 40% | proportion of cells with absent YAP signal ([1]; 10-day treatment): 60%

O=C(CCl)c1ccccc1Nc1cccc(C(F)(F)F)c1 [TED-347]
cell viability as a single agent [4]: significant toxicity

C=CC(=O)N1CCC(Nc2cccc(C(F)(F)F)c2C)C1 (centres unmarked) [MYF-01-37]
YAP/TEAD interaction (YAP/TEAD interaction): inhibition of direct YAP/TEAD interaction | YAP activity (reporter) induced by osimertinib/trametinib [1]: completely suppressed the increased YAP activity | apoptosis (EGFR-mutant NSCLC cells): significantly increased apoptosis | dormant cells after treatment ([2]; PC-9 and HCC4006 cells, 10-day treatment in combination with osimertinib/trametinib vs osimertinib/trametinib alone): dramatic decrease in dormant cells | regrowth after one week triple combination followed by two weeks osimertinib/trametinib vs three-week continuous triple combination ([2]; PC-9 cells): identical potency | TEAD pull-down by biotinylated MYF-01-37 from whole-cell lysate (TEAD): loss of direct TEAD pull-down | CTGF expression in cells overexpressing TEAD1 C359S mutant (CTGF expression): abrogated | CTGF expression (CTGF expression; PC-9 cells): reduction in canonical YAP target gene CTGF expression | cell viability as a single agent [4]: minimal impact on cell viability; also recorded: did not demonstrate single-agent toxicity | BMF expression (BMF expression): robust increase in BMF expression | site of covalent modification (TEAD2 protein): targeted cysteine 380
